Values quoted from earlier work, collected in patent US20140356424A1, “COMPOSITION FOR TREATMENT OR REDUCTION OF SYMPTOMS RELATED TO PREMENSTRUAL SYNDROME (PMS), PREMENSTRUAL DISPHORIC DISORDER (PMDD), PREMENOPAUSE, MENOPAUSE OR FEMALE HORMONAL DISORDERS, IN A PHARMACEUTICAL COMPOSITION CONTAINING SAID FORM, AND PROCESS FOR PRODUCING SAID PHARMACEUTICAL FORM AND USE …” (EMS S.A., priority 2013, published 2014).

Tests used:
premenstrual symptoms = settings: daily supplement of 200 mg of magnesium (as MgO)
[1] = system: women with a diagnosis of PMS; settings: calcium carbonate 1.0 g/day, after three months

SMILES	effect on severity of premenstrual symptoms (premenstrual symptoms)	complaints of headache, anxiety, agitation and irritability [1]	symptom of fatigue (questionnaire) ([1]; placebo 52.3%)	symptom of changes in appetite (questionnaire) ([1]; placebo 75%)
[O]=[Mg] [magnesium (as MgO), magnesium oxide]	reduced mild premenstrual symptoms			
O=C([O-])[O-].[Ca+2] [calcium carbonate]		significant changes were not observed	36%	52.7%
